Results from patent US20230103631A1, “PEPTIDES AS SELECTIVE GIP RECEPTOR AGONISTS” (Sanofi, priority 2020, published 2023).
*1 amine or outer side, *2 acyl side, *3 side chain or, on linkers, in order; H or OH if unused. Where a SMILES comes first, the peptide text is derived from it. Side-chain parts run from the residue outwards. [ ]: non-standard residue; d: D form. The star is where a group is joined. C20 diacid = O=C(O)CCCCCCCCCCCCCCCCCCC(=O)*; C18 diacid = O=C(O)CCCCCCCCCCCCCCCCC(=O)*; γGlu = O=C(O)[C@H](CCC(=O)[*:2])N[*:1]; AEEA = NCCOCCOCC(=O)O; Aib = CC(C)(N)C(=O)O; Sar = CNCC(=O)O

Key:
[1] = target: human GLP-1 receptor (hGLP-1R) (Homo sapiens, UniProt P43220); experiment: cAMP HTRF assay, HEK-293 cell line over-expressing human GLP-1 receptor; format: cell-based; conditions: HEK-293, cAMP, 0% HSA
Sequence of human GLP-1 receptor (hGLP-1R) (P43220 24-463): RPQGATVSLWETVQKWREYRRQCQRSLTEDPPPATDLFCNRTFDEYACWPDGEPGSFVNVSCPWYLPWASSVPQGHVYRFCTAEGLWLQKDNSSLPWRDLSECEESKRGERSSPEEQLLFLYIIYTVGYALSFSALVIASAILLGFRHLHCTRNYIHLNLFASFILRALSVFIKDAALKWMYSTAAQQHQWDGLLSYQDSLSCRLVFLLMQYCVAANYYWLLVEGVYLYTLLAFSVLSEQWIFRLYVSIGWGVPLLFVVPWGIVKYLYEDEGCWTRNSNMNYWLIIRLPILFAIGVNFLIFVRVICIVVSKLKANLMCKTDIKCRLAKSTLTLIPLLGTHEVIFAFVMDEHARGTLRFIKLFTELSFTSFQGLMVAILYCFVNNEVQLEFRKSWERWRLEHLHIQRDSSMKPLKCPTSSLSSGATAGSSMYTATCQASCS
Protocol: Each vial contained 1.8 ml cells. The vials were slowly frozen to −80° C. in isopropanol, and then transferred in liquid nitrogen for storage.
Prior to their use, frozen cells were thawed quickly at 37° C. and washed (5 min at 900 rpm) with 20 ml cell buffer (1× HBSS; 20 mM HEPES, plus 0.1% HSA if indicated in Example conditions).
For measurement of cAMP generation, 5 μl cells (final 5000 cells/well) and 5 μl of test compound were added to a 384-well plate, followed by incubation for 30 min at room temperature.
The cAMP generated was determined using a kit from Cisbio Corp. based on HTRF (Homogenous Time Resolved Fluorescence). The cAMP assay was performed according to manufacturer's instructions (Cisbio).

physchem = format: physicochemical; conditions: for Soluble amount: 24 h, pH 7.4; for solubility at 24 h: pH 7.4, Soluble amount
Protocol: Prior to the solubility measurement of a peptide batch, its purity was determined through UHPLC/MS. […] Therefore, solutions from solid samples were prepared in a buffer system with a concentration of 10 mg/ml compound based on the previously determined % purity: Solubility buffer system A) 100 mM phosphate buffer pH 7.4 […] Solubility buffer system C) 100 mM phosphate buffer pH 7.4, 2.7 mg/ml m-cresol UHPLC-UV was performed after 1 h of gentle agitation and storage at 5° C. over night (24 h) from the supernatant, which was obtained after 15 min of centrifugation at 2500 RCF (relative centrifugal acceleration). […] The different UV extinction coefficients of sample and reference peptide were calculated based on the different amino acid sequences and considered in the concentration calculation. The analytical method used was Analytical UHPLC Method A. Peptide samples were prepared in solubility buffer system A or C and solubility was assessed as described in Methods.

C57Bl/6 mice = experiment: Intraperitoneal glucose tolerance test (ipGTT) after s.c. treatment; format: in vivo; conditions: 10 nmol/kg s.c. 6 h before i.p. glucose load, mean ± SEM
Protocol: Healthy, normoglycemic male C57Bl/6NCrl mice were ordered in an age of 9-10 weeks with an approximate body weight (BW) of 24-26 g at Charles River Laboratories Deutschland GmbH, 97633 Sulzfeld, Germany. Mice were shipped grouped housed (N=4 per cage), acclimatized for one week and remained grouped housed throughout the entire study. Mice were housed under vivarium conditions that included a 12 h light/dark cycle (light phase 06:00 AM-06:00 PM), mean room temperature of 22±2° C. and a relative mean humidity of 55±10%. All animals had free access to food (Ssniff R/M-H diet) and water prior to study start.
The primary objective of the study was to investigate the compound-induced lowering of the blood glucose excursion and improvement of glucose tolerance in a mouse ipGTT setting and therefore the primary parameters included blood glucose, delta blood glucose (normalized to the time point just prior to the i.p. glucose challenge, t=0 h) and their respective calculated area under curve (AUC) values. The study was performed as an acute, single dosing study with 6 groups and the male animals were randomly divided to groups of 7-8 mice per group. Dose-dependent pharmacodynamic blood glucose lowering efficacy of the GIPR agonist was analyzed with s.c. injections 6 h before the i.p. glucose load in the dose range from 3 up to 100 nmol/kg and compared to the vehicle group as well as the semaglutide positive control at a dose of 10 nmol/kg.
In more detail, mice were fed overnight and on the following morning brought to the lab with food removed but ad libitum access to water. Blood samplings (5 μl) were performed at: −6.5, −0.5, 0, 0.17, 0.5, 1, 1.5, 2 and 3 h before and after the glucose bolus of 1 g glucose per kg BW i.p. given at time point t=0 h. On time point t=0.17 h an additional K-EDTA plasma sample from 60-80 μl blood was taken for plasma insulin analysis. Blood was withdrawn from the tip of the tail. The GIPR agonist and semaglutide were dissolved in 10 mM phosphate buffer pH 7.4 with 2.3% glycerol and 0.01% polysorbat 20 (vehicle) and s.c. treatment was performed −6 h before the glucose load (t=0 h) using an injection volume of 5 ml/kg. The injection solutions were freshly prepared prior to the experiment using sterile filtered vehicle solution.
Blood glucose was determined enzymatically (Gluco-quant® Glucose/HK kit on Roche/Hitachi 912). Plasma insulin was determined using a mouse/rat insulin sandwich immunoassay kit from Meso Scale Discovery.
All data were collected using Microsoft Excel. None of the data were collected online. The results are expressed as means±standard error of the mean (SEM). As primary study parameters, blood glucose, baseline (time point t=0 h) subtracted delta blood glucose and their respective calculated area under curve (AUC) values were determined. The respective AUC data were calculated using the trapezoid rule for the time period t=0 h until t=2 h.
The statistical analysis of the ipGTT blood glucose excursion data response following subcutaneous compound or vehicle treatment was performed on the calculated AUC values of blood glucose raw data as well as the calculated AUC values for baseline subtracted delta blood glucose data. In a first step the Levene's test was used to test for equality of variances between groups. Where Levene's test was significant (p s 0.05), a rank transformation of the calculated AUC data was applied to stabilize the variances before ANOVA analysis was conducted. Where Levene's test was not significant (p>0.05) ANOVA was conducted without prior rank transformation. In a second step a One-way ANOVA analysis for factor treatment followed by Dunnett's multiple comparisons test vs. vehicle group was used to test for statistical differences. Different levels of significance were defined as *=p<0.05, **=p<0.001, ***=p<0.0001. All analyses were performed using SAS (version 9.4) under Linux via the interface software EverSt@t V6.1. […]

Compound: CC[C@H](C)[C@H](NC(=O)[C@H](Cc1ccccc1)NC(=O)[C@H](CCC(=O)O)NC(=O)[C@H](CCC(=O)O)NC(=O)[C@H](CCC(N)=O)NC(=O)[C@H](Cc1c[nH]cn1)NC(=O)[C@@H](NC(=O)[C@H](CCCNC(=N)N)NC(=O)[C@H](CC(=O)O)NC(=O)[C@H](CCCCNC(=O)COCCOCCNC(=O)COCCOCCNC(=O)CC[C@H](NC(=O)CC[C@H](NC(=O)CCCCCCCCCCCCCCCCCCC(=O)O)C(=O)O)C(=O)O)NC(=O)C(C)(C)NC(=O)[C@@H](NC(=O)[C@H](CO)NC(=O)[C@H](CC(C)C)NC(=O)[C@H](CC(=O)O)NC(=O)[C@H](CO)NC(=O)[C@@H](NC(=O)[C@H](Cc1ccccc1)NC(=O)[C@@H](NC(=O)CNC(=O)[C@H](CCC(=O)O)NC(=O)C(C)(C)NC(=O)[C@@H](N)Cc1ccc(O)cc1)[C@@H](C)O)[C@@H](C)CC)[C@@H](C)CC)[C@@H](C)CC)C(=O)N[C@@H](CCC(=O)O)C(=O)N[C@@H](Cc1c[nH]c2ccccc12)C(=O)N[C@@H](CC(C)C)C(=O)N[C@@H](CC(C)C)C(=O)N[C@@H](C)C(=O)N[C@@H](CCC(N)=O)C(=O)NCC(=O)N1CCC[C@H]1C(=O)N[C@@H](CO)C(=O)N[C@@H](CO)C(=O)NCC(=O)N[C@@H](C)C(=O)N1CCC[C@H]1C(=O)N1CCC[C@H]1C(=O)N1CCC[C@H]1C(=O)N[C@@H](CO)C(N)=O [SEQ ID NO: 15, H2N-Y-Aib-E-G-T-F-I-S-D-I-S-I-Aib-K[{AEEA}2-{gGlu}2-C20OH]-DRIHQEEFIEWILAQGPSSGAPPPS-NH2] (H-Y[Aib]EGTFISDLSI[Aib]K([AEEA-AEEA-γGlu-γGlu-C20 diacid])DRIHQEEFIEWLLAQGPSSGAPPPS-NH2)
- EC50 [1]: > 10 nM
- Soluble amount (physchem): >9.2 mg/mL
- solubility at 24 h (physchem): > 10.3 mg/mL

Compound: CC[C@H](C)[C@H](NC(=O)[C@H](Cc1ccccc1)NC(=O)[C@H](CCC(=O)O)NC(=O)[C@H](CCC(=O)O)NC(=O)[C@H](CCC(N)=O)NC(=O)[C@H](Cc1c[nH]cn1)NC(=O)[C@@H](NC(=O)[C@H](CCCNC(=N)N)NC(=O)[C@H](CC(=O)O)NC(=O)[C@H](CCCCNC(=O)CNC(=O)CNC(=O)CNC(=O)CC[C@H](NC(=O)CCCCCCCCCCCCCCCCC(=O)O)C(=O)O)NC(=O)C(C)(C)NC(=O)[C@@H](NC(=O)[C@H](CO)NC(=O)[C@H](CC(C)C)NC(=O)[C@H](CC(=O)O)NC(=O)[C@H](CO)NC(=O)[C@@H](NC(=O)[C@H](Cc1ccccc1)NC(=O)[C@@H](NC(=O)CNC(=O)[C@H](CCC(=O)O)NC(=O)C(C)(C)NC(=O)[C@@H](N)Cc1ccc(O)cc1)[C@@H](C)O)[C@@H](C)CC)[C@@H](C)CC)[C@@H](C)CC)C(=O)N[C@@H](CCC(=O)O)C(=O)N[C@@H](Cc1c[nH]c2ccccc12)C(=O)N[C@@H](CC(C)C)C(=O)N[C@@H](CC(C)C)C(=O)N[C@@H](C)C(=O)N[C@@H](CCC(N)=O)C(=O)NCC(=O)N1CCC[C@H]1C(=O)N[C@@H](CO)C(=O)N[C@@H](CO)C(=O)NCC(=O)N[C@@H](C)C(=O)N1CCC[C@H]1C(=O)N1CCC[C@H]1C(=O)N1CCC[C@H]1C(=O)N[C@@H](CO)C(N)=O [SEQ ID NO: 16, H2N-Y-Aib-E-G-T-F-I-S-D-I-S-I-Aib-K[{Gly}3-gGlu-C18OH]-DRIHQEEFIEWILAQGPSSGAPPPS-NH2] (H-Y[Aib]EGTFISDLSI[Aib]K([Gly-Gly-Gly-γGlu-C18 diacid])DRIHQEEFIEWLLAQGPSSGAPPPS-NH2)
- EC50 [1]: > 10 nM
- Soluble amount (physchem): >9.9 mg/mL
- solubility at 24 h (physchem): > 10 mg/mL

Compound: CC[C@H](C)[C@H](NC(=O)[C@H](Cc1ccccc1)NC(=O)[C@H](CCC(=O)O)NC(=O)[C@H](CCC(=O)O)NC(=O)[C@H](CCC(N)=O)NC(=O)[C@H](Cc1c[nH]cn1)NC(=O)[C@@H](NC(=O)[C@H](CCCNC(=N)N)NC(=O)[C@H](CC(=O)O)NC(=O)[C@H](CCCCNC(=O)CN(C)C(=O)CN(C)C(=O)CN(C)C(=O)CC[C@H](NC(=O)CCCCCCCCCCCCCCCCC(=O)O)C(=O)O)NC(=O)C(C)(C)NC(=O)[C@@H](NC(=O)[C@H](CO)NC(=O)[C@H](CC(C)C)NC(=O)[C@H](CC(=O)O)NC(=O)[C@H](CO)NC(=O)[C@@H](NC(=O)[C@H](Cc1ccccc1)NC(=O)[C@@H](NC(=O)CNC(=O)[C@H](CCC(=O)O)NC(=O)C(C)(C)NC(=O)[C@@H](N)Cc1ccc(O)cc1)[C@@H](C)O)[C@@H](C)CC)[C@@H](C)CC)[C@@H](C)CC)C(=O)N[C@@H](CCC(=O)O)C(=O)N[C@@H](Cc1c[nH]c2ccccc12)C(=O)N[C@@H](CC(C)C)C(=O)N[C@@H](CC(C)C)C(=O)N[C@@H](C)C(=O)N[C@@H](CCC(N)=O)C(=O)NCC(=O)N1CCC[C@H]1C(=O)N[C@@H](CO)C(=O)N[C@@H](CO)C(=O)NCC(=O)N[C@@H](C)C(=O)N1CCC[C@H]1C(=O)N1CCC[C@H]1C(=O)N1CCC[C@H]1C(=O)N[C@@H](CO)C(N)=O [SEQ ID NO: 17, H2N-Y-Aib-E-G-T-F-I-S-D-I-S-I-Aib-K[{N-MeGly}3-gGlu-C18OH]-DRIHQEEFIEWILAQGPSSGAPPPS-NH2] (H-Y[Aib]EGTFISDLSI[Aib]K([Sar-Sar-Sar-γGlu-C18 diacid])DRIHQEEFIEWLLAQGPSSGAPPPS-NH2)
- EC50 [1]: > 10 nM
- Soluble amount (physchem): >11.8 mg/mL
- solubility at 24 h (physchem): > 10.9 mg/mL

Compound: semaglutide [reference compound]
- Incremental blood glucose concentration AUCi (C57Bl/6 mice; vehicle +4.93 ± 0.324): +1.15 ± 0.255 mmol/L* 0-2 h
- Blood glucose concentration AUC (C57Bl/6 mice; vehicle +22.15 ± 0.662): +10.21 ± 0.503 mmol/L* 0-2 h
